Assays:
Type in all cases: cell-based
[1] = system: enterovirus EV71 (SZ-98 strain); assay: anti-EV71 activity, preventive effect on RD cell (CPE inhibition)
Procedure: (§1) Test principle: Vero cell, MRC-5 cell, and RD cell were used as host of virus, respectively, and samples were tested for their inhibition of cytopathic effect (CPE) caused by virus.
(§2) 1. Virus strain: enterovirus EV71 (SZ-98 strain, provided by Chinese Center for Disease Control and Prevention), Vero cell (provided by the Cell Bank of Chinese Academy of Sciences), MRC-5 cell (provided by the Cell Bank of Chinese Academy of Sciences), and RD cell (provided by the Cell Bank of Chinese Academy of Sciences), were subjected to passage culture, respectively, and stored at −80° C.
(§3) 2. Sample treatment: a test sample (Compounds 1-14 and positive control agent) was dissolved in dimethyl sulfoxide (DMSO) to prepare a stock solution, which was stored at −20° C. The stock solution was diluted with DMEM medium (Gibco Company) containing 2% fetal bovine serum (Gibco Company) to prepare a 100 μM solution before use, and was 3-fold diluted with the medium to obtain 8 diluted concentrates.
(§4) 3. Positive control agent: Con1 (pitstop2) (purchased from AmyJet Scientific Inc., Abcam), a broad-spectrum antiviral inhibitor.
(§5) 4. Test method: • 4.1 Therapeutic effect: the cells were seeded on a 96-well culture plate, and cultured in a 5% CO2, 37° C. incubator for 24 h. About 100 TCID50 enterovirus EV71 was added to each well. After adsorption at 37° C. for 1 h, the virus solution was discarded, and a drug was added at different diluted concentrates, respectively. Meanwhile, virus control and cell control were set, and cultured at 37° C. […] The virus-inhibition rate of a sample at each concentration was calculated based on the chemiluminescent value, the sample concentration was used as abscissa, and the inhibition rate was used as ordinate, and S-Curve fitting was performed by using Origin software. Half maximal inhibitory concentration (IC50) of each sample for enterovirus EV71 was calculated based on the fitting results. Median toxic concentration (TC50) was determined by the same method. […] To each well, a drug was added at a different diluted concentration, then the cells were cultured at 37° C. for 2 h, and then the drug was discarded. About 100 TCID50 enterovirus EV71 was added to each well, adsorbed at 37° C. for 1.5 h, then the virus solution was discarded, and a maintenance medium free of drug was added. Meanwhile, virus control and cell control were set, and cultured at 37° C. […] The virus-inhibition rate of a sample at each concentration was calculated, and half maximal inhibitory concentration (IC50), median toxic concentration (TC50), and selection index (SI) of each sample for enterovirus EV71 were calculated. The methods for determining and calculating them were as described in Item 4.1

[2] = system: enterovirus EV71 (SZ-98 strain); assay: anti-EV71 activity, therapeutic effect on Vero cell (CPE inhibition, Celltiter Glo); settings: EV71 (SZ-98 strain), therapeutic effect on Vero cell; read-out: IC50
Procedure: as §1, §2, §3, §4, §5

[3] = system: enterovirus EV71 (SZ-98 strain); assay: anti-EV71 activity, therapeutic effect on MRC-5 cell (CPE inhibition, Celltiter Glo); settings: MRC5
Procedure: as §1, §2, §3, §4, §5

[4] = median toxic concentration on RD cell; settings: human, RD cells; for CC50: read-out: TC50 (the source's name); for CC50 at 2 h: Table 2-2 (preventive effect), read-out: TC50
Procedure: as §2, §3, §5

[5] = system: enterovirus EV71 (SZ-98 strain); assay: anti-EV71 activity, preventive effect on Vero cell (CPE inhibition)
Procedure: as §1, §2, §3, §4, §5

[6] = system: enterovirus EV71 (SZ-98 strain); assay: anti-EV71 activity, therapeutic effect on RD cell (CPE inhibition, Celltiter Glo)
Procedure: as §1, §2, §3, §4, §5

[7] = median toxic concentration on MRC-5 cell; settings: human, MRC-5 cells, Table 1-2 (therapeutic effect), read-out: TC50 (the source's name)
Procedure: as §2, §3, §5

[8] = median toxic concentration on Vero cell; settings: African green monkey, Vero cells; for CC50: Table 1-1 (therapeutic effect), read-out: TC50 (the source's name); for CC50 at 2 h: Table 2-1 (preventive effect), read-out: TC50
Procedure: as §2, §3, §5

[9] = system: clathrin-mediated endocytosis of transferrin; assay: inhibition of clathrin-mediated endocytosis of transferrin in HeLa cells (fluorescence microscope); settings: for inhibition at 20 µM: Homo sapiens, 20 μM compound, read-out: Inhibition rate; for inhibitory effect on endocytosis of transferrin (in words): 1.25 to 40 μmol/L
Procedure: 1. Experiment principle: transferrin was a key protein for clathrin-mediated endocytosis. Therefore, by determining the effect of a compound on transferrin in HeLa cell, the inhibitory effect of the compound on clathrin-mediated endocytosis could be evaluated. 2. Sample treatment: a test compound was dissolved in DMSO to prepare a stock solution, which was stored at −20° C. The stock solution was diluted with HEPES buffer (25 mm HEPES, 20 mm Glucose, 1% BSA, sterile water) to prepare a solution with an initial concentration of […] before use, and was 2-fold diluted with the buffer to obtain 6 diluted concentrations from 1.25 to 40 μmol/L. 4. Test method: HeLa cells (provided by the Cell Bank of Chinese Academy of Sciences) were seeded on a 24-well culture plate coated with 0.1 mg/ml polylysine, a serum-free medium DMEM (Gibco Company) was added at 500 μl/well, and the cells were cultured for one night. To each well, 0.5 μl a test compound at a different diluted concentration or 0.1 v/v % DMSO was added, then the pretreatment was performed for 15 min, and then 20 μg/ml alexa^568 transferrin (2 μl) (TF, SIGMA-ALDRICH Company) was added, and the incubation was carried out at 37° C. for 15 min. The resultant mixture was then washed with Live Cell Imaging Solution (LCIS, Invitrogen Company) and an acid at a low pH ([…] NaCl solution containing 0.5% acetic acid) for 30 s, respectively, followed by fixing with cold methanol, and was observed under fluorescence microscope.

| IC50 [1] [µM] | IC50 [2] [µM] | IC50 [5] [µM] | IC50 ([6]; EV71 (SZ-98 strain)) [µM] | IC50 ([6]; Enterovirus, EV71) [µM] | SMILES | IC50 [3] [µM] | CC50 ([4]; Table 1-3 (therapeutic effect)) [µM] | CC50 at 2 h [4] [µM] | CC50 [7] [µM] | CC50 [8] [µM] | CC50 at 2 h [8] [µM] | inhibition at 20 µM [9] [%] | inhibitory effect on endocytosis of transferrin (in words) [9] | CC50 [4] [µM] | anti-EV71 activity (in words) [6] | endocytosis of transferrin at 20 μM (in words) ([9]; 20 μM) |
| --- | --- | --- | --- | --- | --- | --- | --- | --- | --- | --- | --- | --- | --- | --- | --- | --- |
| > 7.41 | > 22.2 | > 22.2 | > 7.41 | – | COc1cccc(OC)c1/C=C1\SC(NS(=O)(=O)c2cccc3ccccc23)=NC1=O [Compound 9, Naphthalene-1-sulfonic acid [5-(2,6-dimethoxy-benzylidene)-4-oxo-4,5-dihydro-thiazol-2-yl] amide] | > 22.2 | 12.8 | 12.8 | 38.5 | 38.5 | 38.5 | – | – | – | – | – |
| > 0.82 | > 2.47 | > 2.47 | > 0.82 | – | COc1ccc(/C=C2\SC(NS(=O)(=O)c3cccc4ccccc34)=NC2=O)cc1O [Compound 7, Naphthalene-1-sulfonic acid [5-(3-hydroxy-4-methoxy-benzylidene)-4-oxo-4,5-dihydro-thiazol-2-yl] amide] | > 2.47 | 3.56 | 3.56 | 10.7 | 7.41 | 7.41 | – | – | – | – | – |
| 7.41 | > 22.2 | > 22.2 | > 22.2 | – | O=C1N=C(NS(=O)(=O)c2cccc3ccccc23)SC1Nc1ccccc1 (stereo not drawn) [Compound 13, Naphthalene-1-sulfonic acid (4-oxo-5-phenylamino-4,5-dihydro-thiazol-2-yl) amide] | > 22.2 | 66.7 | 66.7 | 66.7 | 66.7 | 66.7 | 50 | – | – | – | – |
| > 7.41 | 7.41 | > 7.41 | > 7.41 | – | O=C1N=C(NS(=O)(=O)c2cccc3ccccc23)S/C1=C\c1ccc(Cl)cc1Cl [Compound 1, Naphthalene-1-sulfonic acid [5-(2,4-dichloro-benzylidene)-4-oxo-4,5-dihydro-thiazol-2-yl] amide] | > 7.41 | 12.8 | 12.8 | 12.8 | 10.7 | 10.7 | – | – | – | – | – |
| 5.14 | > 2.47 | > 2.47 | 5.41 | 5.14 | O=C1N=C(NS(=O)(=O)c2cccc3ccccc23)S/C1=C\c1ccc(Br)cc1 [Con 1, Naphthalene-1-sulfonic acid [5-(4-bromo-benzylidene)-4-oxo-4,5-dihydro-thiazol-2-yl] amide, reference compound] | > 2.47 | – | 12.8 | 10.7 | 4.28 | 4.28 | 50 | dose-dependent | 12.8 | – | – |
| > 7.41 | > 2.47 | > 2.47 | 5.75 | 5.75 | O=C1N=C(NS(=O)(=O)c2cccc3ccccc23)S/C1=C\c1ccc(Cl)cc1 [Compound 4, Naphthalene-1-sulfonic acid [5-(4-chloro-benzylidene)-4-oxo-4,5-dihydro-thiazol-2-yl] amide] | > 7.41 | – | 12.8 | 12.8 | 4.28 | 4.28 | – | – | 12.8 | better anti-EV71 activity | – |
| > 22.2 | > 22.2 | > 22.2 | > 22.2 | – | CC(=O)Nc1ccc(/C=C2\SC(NS(=O)(=O)c3cccc4ccccc34)=NC2=O)cc1 [Compound 12, Naphthalene-1-sulfonic acid [5-(4-acetylamino-benzylidene)-4-oxo-4,5-dihydro-thiazol-2-yl] amide] | > 22.2 | 38.5 | 38.5 | 38.5 | 32 | 32 | – | – | – | – | – |
| > 22.2 | > 0.82 | > 0.82 | > 22.2 | – | O=C1N=C(NS(=O)(=O)c2cccc3ccccc23)S/C1=C\c1ccc(-c2ccccc2)cc1 [Compound 11, Naphthalene-1-sulfonic acid (5-biphenyl-4-yl-methylene-4-oxo-4,5-dihydro-thiazol-2-yl) amide] | > 7.41 | 46.2 | 46.2 | 32 | 3.56 | 3.56 | – | – | – | – | – |
| > 22.2 | > 22.2 | > 22.2 | 15.4 | – | O=C1N=C(NS(=O)(=O)c2cccc3ccccc23)S/C1=C\c1cccc(O)c1 [Compound 6, Naphthalene-1-sulfonic acid [5-(3-hydroxy-benzylidene)-4-oxo-4,5-dihydro-thiazol-2-yl] amide] | > 22.2 | 38.5 | 38.5 | 38.5 | 38.5 | 38.5 | – | – | – | better anti-EV71 activity | – |
| > 22.2 | > 7.41 | > 7.41 | 22.2 | – | O=C1N=C(NS(=O)(=O)c2cccc3ccccc23)S/C1=C\c1ccc(O)c(Br)c1 [Compound 8, Naphthalene-1-sulfonic acid [5-(3-bromo-4-hydroxy-benzylidene)-4-oxo-4,5-dihydro-thiazol-2-yl] amide] | > 2.47 | 66.7 | 66.7 | 9.54 | 12.8 | 12.8 | – | – | – | better anti-EV71 activity | – |
| 22.2 | 15.4 | > 22.2 | 15.4 | – | O=C1N=C(NS(=O)(=O)c2cccc3ccccc23)SC1C(c1ccccc1)c1ccc(Br)cc1 (stereo not drawn) [Compound 14, Naphthalene-1-sulfonic acid {5-[(4-bromo-phenyl)-phenyl-methyl]-4-oxo-4,5-dihydro-thiazol-2-yl} amide] | 15.4 | 38.5 | 38.5 | 32 | 32 | 32 | 100 | dose-dependent | – | better anti-EV71 activity | completely inhibited |
| > 7.41 | > 7.41 | > 7.41 | > 7.41 | – | COc1cc(/C=C2\SC(NS(=O)(=O)c3cccc4ccccc34)=NC2=O)ccc1O [Compound 2, Naphthalene-1-sulfonic acid [5-(3-methoxy-4-hydroxy-benzylidene)-4-oxo-4,5-dihydro-thiazol-2-yl] amide] | > 7.41 | 22.2 | 22.2 | 22.2 | 12.8 | 12.8 | – | – | – | – | – |

From patent publication US10611742B2, “4-oxo-4,5-dihydrothiazole derivative, preparation method and use thereof” (Institute of Pharmacology and Toxicology Academy of …, priority 2015, dated 2020)
